Consider 3 compounds from PMC10293842 (Proceedings of the National Academy of Sciences of the …, 2023).

Positions of bridges follow the written chain, without caps; N, C: chain ends. Residues, ends and D or L forms follow the SMILES beside them.

For assay [1], the system named is SARS-CoV-2 S (Wuhan-Hu-1) pseudo-typed VSV on VeroE6 cells. Format: cell-based.
Assay [2] concerns Alpha (B.1.1.7) S pseudotyped virus on VeroE6 cells. The format is cell-based, SARS-CoV-2.
For assay [3], the system named is Beta (B.1.351) S pseudotyped virus on VeroE6 cells. Format: cell-based, SARS-CoV-2.
Assay [4] deals with Delta (B.1.617.2) S pseudotyped virus on VeroE6 cells. Format: cell-based, SARS-CoV-2.
Assay [5] relates to Omicron (B.1.1.529) BA.1 S pseudotyped virus on VeroE6 cells. Format: cell-based, SARS-CoV-2.
For assay [6], the system named is Omicron BA.2 S pseudotyped virus on VeroE6 cells. The format is cell-based, SARS-CoV-2.
The subject of assay [7] is SARS1-S pseudovirus on VeroE6 cells. Format: cell-based.
The subject of assay [8] is WIV-16-S pseudovirus on VeroE6 cells. The format is cell-based.
For assay [9], the system named is SARS-CoV-2 ancestral Wuhan strain in HEK293 ACE2+ TMPRSS2+ cells. Conditions: 24 h.
Assay [10] concerns Omicron BA.1 and BA.2. The following applies: cited from earlier work.
Assay [11] deals with Omicron BA.1. The following applies: cited from earlier work.
Assay [12] concerns Omicron BA.2. Conditions: cited from earlier work.

On to `CC[C@H](C)[C@@H]1NC(=O)[C@H](CCC(N)=O)NC(=O)[C@H](CCC(=O)O)NC(=O)[C@H](CCCNC(=N)N)NC(=O)[C@@H]2CCCN2C(=O)[C@H](CCCNC(=N)N)NC(=O)[C@H](CCCNC(=N)N)NC(=O)[C@H](Cc2ccc(O)cc2)NC(=O)CSC[C@@H](C(=O)NCC(N)=O)NC(=O)[C@H](Cc2ccccc2)NC(=O)[C@H](C(C)C)NC(=O)[C@H](Cc2c[nH]c3ccccc23)NC(=O)[C@H](CC(C)C)NC(=O)[C@H](CO)NC(=O)CNC(=O)[C@H]([C@@H](C)CC)NC(=O)[C@H]([C@@H](C)CC)NC1=O` [Peptide S1b3inL1] ({CH2CO}-YRRPREQIIIGSLWVFCG-NH2; thioether N-17), for which the “pseudoviral neutralization activity (in words)” value in assay [1] was “submicromolar concentrations”. Besides, the “fluctuation of EC50, Alpha” value in [2] worked out at 1.5 fold. The “fluctuation of EC50, Beta” value in assay [3] was 3.1 fold. Also, the “fluctuation of EC50, Delta” value in assay [4] came out at 2.1 fold. Besides, in [5], the “fluctuation of EC50, Omicron BA.1” value was found to be 3.1 fold. Moreover, the “fluctuation of EC50, Omicron BA.2” value in assay [6] was determined as 2.1 fold. In addition, the “change of infection inhibition, SARS1-S” value in [7] is 1.3 fold. Besides, the “change of infection inhibition, WIV-16-S” value in assay [8] is reported as 4.1 fold. Moreover, the EC50 (commonly the concentration needed to bring the measured effect to its halfway point) in assay [9] worked out at 5.2 µM.

For the compound Cilgavimab [reference compound], the decrease in activity in assay [10] is listed as 20 fold.

With Sotrovimab, in assay [11], the “loss in potency against Omicron BA.1” value is recorded as “threefold”. Besides, the “loss in potency against Omicron BA.2” value in assay [12] is given as 27 fold.
